Test results from ChEMBL document CHEMBL1139998, “Design, synthesis, and binding studies of bidentate Zn-chelating peptidic inhibitors of glyoxalase-I” (Bioorg Med Chem Lett, 2007).

Molecular target: T1, Glyoxalase I (Saccharomyces cerevisiae S288c, UniProt P50107)
T1 sequence (P50107 whole entry): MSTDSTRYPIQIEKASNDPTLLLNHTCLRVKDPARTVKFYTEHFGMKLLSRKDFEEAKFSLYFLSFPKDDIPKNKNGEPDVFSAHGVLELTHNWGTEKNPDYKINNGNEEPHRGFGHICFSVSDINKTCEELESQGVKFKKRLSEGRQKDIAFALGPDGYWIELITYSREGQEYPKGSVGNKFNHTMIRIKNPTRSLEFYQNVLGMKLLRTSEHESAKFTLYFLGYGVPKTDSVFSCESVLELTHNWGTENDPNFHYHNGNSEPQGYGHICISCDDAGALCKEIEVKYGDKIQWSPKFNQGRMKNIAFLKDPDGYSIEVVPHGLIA
Assay: Inhibition of yeast glyoxalase 1

Ki [µM]	SMILES
66.9	N[C@@H](CCC(=O)N[C@@H](CCC(=O)CC(=O)OCc1ccc(Br)cc1)C(=O)NCC(=O)O)C(=O)O
112	COC(=O)CC(=O)CC[C@H](NC(=O)CC[C@H](N)C(=O)O)C(=O)NCC(=O)O
